Data taken from ChEMBL document CHEMBL1134888, “Preliminary structure-antiangiogenic activity relationships of 4-senecioyloxymethyl-6,7-dimethoxycoumarin” (Bioorg Med Chem Lett, 2002).
≈ marks a conversion by molar mass, not a printed value.

Columns and labels:
[1] = system: HCT-116; assay: In vitro inhibition of HCT116 (human colon) tumor cell growth.; assay type: functional, cell-based
[2] = system: B16; assay: In vitro inhibition of B16 (murine melanoma) tumor cell growth.; conditions: Mus musculus
[3] = system: HUVEC (Homo sapiens); assay: Inhibitory percentage in HUVEC tube formation assay at a concentration of 3 ug/mL; Inactive
[4] = system: HUVEC (Homo sapiens); assay: Inhibitory percentage in HUVEC tube formation assay at a concentration of 1 ug/mL (toxic)
[5] = system: HUVEC (Homo sapiens); assay: Inhibitory percentage in HUVEC tube formation assay at a concentration of 3 ug/mL (toxic)
[6] = system: HCT-116; assay: Concentration required for 50% reduction in HCT116 tumor cell growth (Human colon) was measured; NA denotes […]; assay type: functional, cell-based
[7] = system: B16; assay: Concentration required for 50% reduction in B16 tumor cell growth (murine melanoma) was measured; NA denotes […]

Row | Structure (SMILES) | IC50 [1] | IC50 [2] | further results
1 | CC(C)=CC(=O)OCc1cc(=O)oc2cc3ccccc3cc12 | > 10 µg/mL | > 10 µg/mL | 
2 | COc1cc2oc(=O)cc(COC(=O)/C=C/c3ccc(Cl)cc3)c2cc1OC | > 10 µg/mL | > 10 µg/mL | 
3 | C/C=C/C(=O)OCc1cc(=O)oc2cc(OC)c(OC)cc12 | > 10 µg/mL | > 10 µg/mL | inhibition at 3 µg/mL [3]: < 10%
4 | COc1cc2oc(=O)cc(COC(=O)/C=C/c3ccc(N)cc3)c2cc1OC | > 10 µg/mL | > 10 µg/mL | 
5 | COc1cc2oc(=O)cc(COC(=O)/C=C/c3ccc(O)cc3)c2cc1OC | 5.21 µg/mL (≈ 13.6 µM) | 4.15 µg/mL (≈ 10.9 µM) | 
6 | COc1cc2oc(=O)cc(COC(=O)/C=C/c3cc(OC)c(OC)c(OC)c3)c2cc1OC | 8.31 µg/mL (≈ 18.2 µM) | 6.74 µg/mL (≈ 14.8 µM) | 
7 | Br.COc1ccc(/C=C/C(=O)OCc2cc(=O)oc3cc(OC)c(OC)cc23)cn1 | 2.43 µg/mL | 1.27 µg/mL | 
8 | COc1cc2oc(=O)cc(COC(=O)/C=C/c3ccc(OCCN(C)C)cc3)c2cc1OC.Cl | > 10 µg/mL | > 10 µg/mL | 
9 | COc1cc2oc(=O)cc(COC(=O)/C=C/c3ccccc3)c2cc1OC | > 10 µg/mL | > 10 µg/mL | 
10 | CC(C)=CC(=O)OCc1cc(=O)oc2ccc(Cl)cc12 | > 10 µg/mL | > 10 µg/mL | 
11 | COc1ccc(/C=C/C(=O)OCc2cc(O)nc3cc(OC)c(OC)cc23)cc1 | > 10 µg/mL | > 10 µg/mL | 
12 | COc1ccc2oc(=O)cc(COC(=O)C=C(C)C)c2c1 | > 10 µg/mL | > 10 µg/mL | inhibition at 3 µg/mL [3]: < 10%
13 | C=CC(=O)OCc1cc(=O)oc2cc(OC)c(OC)cc12 | > 10 µg/mL | > 10 µg/mL | inhibition at 3 µg/mL [3]: < 10%
14 | COc1cc2oc(=O)cc(COC(=O)C=C(C)C)c2cc1OC | > 10 µg/mL | > 10 µg/mL | 
15 | COc1ccc2c(COC(=O)C=C(C)C)cc(=O)oc2c1 | > 10 µg/mL | > 10 µg/mL | inhibition at 3 µg/mL [3]: < 10%
16 | COc1ccc(/C=C/C(=O)OCc2cc(=O)oc3cc(OC)c(OC)cc23)cc1 | 1.02 µg/mL (≈ 2.57 µM) | 0.96 µg/mL (≈ 2.42 µM) | inhibition at 1 µg/mL [4]: 100%
17 | CC(C)=CC(=O)OCc1cc(=O)oc2cc3c(cc12)OCO3 | > 10 µg/mL | > 10 µg/mL | 
18 | COc1ccc(/C=C/C(=O)OCc2cc(=O)oc3cc(OC)c(OC)cc23)cc1O | 3.41 µg/mL (≈ 8.27 µM) | 3 µg/mL (≈ 7.27 µM) | inhibition at 3 µg/mL [5]: 35.5%
19 | COc1cccc2c1C(=O)c1c(O)c3c(c(O)c1C2=O)C[C@@](O)(C(=O)CO)C[C@@H]3O[C@H]1C[C@H](N)[C@H](O)[C@H](C)O1 [DOXORUBICIN] | 0.11 µg/mL (≈ 0.202 µM) | 0.09 µg/mL (≈ 0.166 µM) | 
20 | Cc1ccc(C(=O)Nc2ccc(S(=O)(=O)O)c3cc(S(=O)(=O)O)cc(S(=O)(=O)O)c23)cc1NC(=O)c1cccc(NC(=O)Nc2cccc(C(=O)Nc3cc(C(=O)Nc4ccc(S(=O)(=O)O)c5cc(S(=O)(=O)O)cc(S(=O)(=O)O)c45)ccc3C)c2)c1 [SURAMIN] |  |  | IC50 [6]: Not Active; IC50 [7]: Not Active
